From ChEMBL document CHEMBL1151274, “Halogenated helianane derivatives from the sponge Spirastrella hartmani” (2005)
Active and inactive are the calls of the source. No cut-off for these calls is given here.

Tests used:
Type in all cases: functional
A549 = assay: Cytotoxicity against human A549 cells by sulforhodamine B assay
MDA-MB-231 = assay: Cytotoxicity against human MDA-MB-231 cells by sulforhodamine B assay
HT-29 = assay: Cytotoxicity against human HT-29 cells by sulforhodamine B assay

SMILES	GI50 (A549) [µM]	GI50 (MDA-MB-231) [µM]	GI50 (HT-29) [µM]	Activity (A549)	Activity (MDA-MB-231)	Activity (HT-29)
Cc1cc2c(cc1Cl)[C@@H](C)CCCC(C)(C)O2	37.2	37.6	37.6	–	–	–
Cc1cc2c(cc1Br)[C@@H](C)CCCC(C)(C)O2	–	–	–	inactive	inactive	inactive
COc1cc2c(cc1O)CCN[C@]21CS[C@@H]2c3c(OC(C)=O)c(C)c4c(c3[C@H](COC1=O)N1[C@@H]2[C@H]2c3c(cc(C)c(OC)c3O)C[C@@H]([C@@H]1O)N2C)OCO4 [TRABECTEDIN]	0.0263	0.0184	0.0197	–	–	–
